± gives the uncertainty stated by the source.
Tested on: HepG2 (L1.3 5'UTR promoter firefly luciferase reporter)
Assay: L1 promoter activity (FLuc/RLuc) relative to DMSO vehicle control (% of control); higher = stronger L1 promoter activation
Protocol: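 HepG2 cells in 96-well plates were cotransfected with pGL4.11-L1.3 5'UTR (firefly luciferase driven by the human L1.3 5'UTR promoter) and pGL4.74 (HSV-TK Renilla luciferase internal control), then treated with compound for 6 or 24 h. FLuc/RLuc ratio was normalised to the DMSO vehicle control (% of control); concentrations where RLuc fell below 50% of control were excluded (N.D.). Mean of at least two independent experiments in duplicate or quadruplicate.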

[1] = concentration (uM unless unit written): 2500, treatment time: 6 h
[2] = concentration (uM unless unit written): 2500, treatment time: 24 h
[3] = concentration (uM unless unit written): 5, treatment time: 6 h
[4] = concentration (uM unless unit written): 10, treatment time: 6 h
[5] = concentration (uM unless unit written): 10, treatment time: 24 h
[6] = concentration (uM unless unit written): 50, treatment time: 6 h
[7] = concentration (uM unless unit written): 100, treatment time: 6 h
[8] = concentration (uM unless unit written): 125, treatment time: 6 h
[9] = concentration (uM unless unit written): 125, treatment time: 24 h
[10] = concentration (uM unless unit written): 250, treatment time: 6 h
[11] = concentration (uM unless unit written): 250, treatment time: 24 h
[12] = concentration (uM unless unit written): 500, treatment time: 6 h
[13] = concentration (uM unless unit written): 500, treatment time: 24 h
[14] = concentration (uM unless unit written): 1000, treatment time: 6 h

For `CCCC(CCC)C(=O)O` [Valproic acid], the L1 promoter activity [1] was 90.2 ± 25 and the L1 promoter activity [2] was 18.5 ± 1.6.
Work on `COc1cc2c(c(OC)c1OC)-c1ccc(OC)c(=O)cc1[C@@H](NC(C)=O)CC2` [Colchicine] yielded an L1 promoter activity (concentration (uM unless unit written): 0.01, treatment time: 6 h) of 100 ± 17, an L1 promoter activity (concentration (uM unless unit written): 0.01, treatment time: 24 h) of 100 ± 18 and an L1 promoter activity (concentration (uM unless unit written): 0.05, treatment time: 6 h) of 99.8 ± 4.3. It also gave an L1 promoter activity (concentration (uM unless unit written): 0.1, treatment time: 6 h) of 108 ± 32.
In the case of `O=c1[nH]cc(F)c(=O)[nH]1` [Fluorouracil], the L1 promoter activity [3] is reported as 110 ± 30, the L1 promoter activity (concentration (uM unless unit written): 5, treatment time: 24 h) is reported as 107 ± 18 and the L1 promoter activity [4] is reported as 109 ± 22. For the same compound, the L1 promoter activity [5] was 83.2 ± 4.1, the L1 promoter activity (concentration (uM unless unit written): 20, treatment time: 6 h) was 94.5 ± 11 and the L1 promoter activity (concentration (uM unless unit written): 20, treatment time: 24 h) was 73.4 ± 11.
With `Cc1cn([C@H]2C[C@H](N=[N+]=[N-])[C@@H](CO)O2)c(=O)[nH]c1=O` [Azidothymidine] the L1 promoter activity [6] was 107 ± 25, the L1 promoter activity [7] was 106 ± 26 and the L1 promoter activity (concentration (uM unless unit written): 200, treatment time: 6 h) was 111 ± 27. For the same compound, the L1 promoter activity (concentration (uM unless unit written): 200, treatment time: 24 h) was 104 ± 13 and the L1 promoter activity (concentration (uM unless unit written): 1000, treatment time: 24 h) was 110 ± 7.2.
Compound `C[C@]12CCC(=O)C=C1CC[C@@H]1[C@@H]2CC[C@@]2(C)[C@H]1CC[C@]2(C)O` [Methyltestosterone] has an L1 promoter activity (concentration (uM unless unit written): 25, treatment time: 6 h) of 94.7 ± 15, an L1 promoter activity (concentration (uM unless unit written): 25, treatment time: 24 h) of 73.9 ± 15 and an L1 promoter activity [6] of 108 ± 4.4. It also gave an L1 promoter activity (concentration (uM unless unit written): 50, treatment time: 24 h) of 74.5 ± 14, an L1 promoter activity [7] of 98.5 ± 14 and an L1 promoter activity (concentration (uM unless unit written): 100, treatment time: 24 h) of 85.3 ± 3.9.
Compound `Nc1ccn([C@@H]2O[C@H](CO)[C@@H](O)[C@@H]2O)c(=O)n1` [Cytosine arabinoside] has an L1 promoter activity [8] of 101 ± 8, an L1 promoter activity [9] of 106 ± 3.7 and an L1 promoter activity [10] of 95.2 ± 5.5. It also gave an L1 promoter activity [11] of 105 ± 4.4, an L1 promoter activity [12] of 102 ± 8.1 and an L1 promoter activity [13] of 103 ± 6.2.
`CCC1(c2ccc(N)cc2)CCC(=O)NC1=O` (configuration not stated) [Aminoglutethimide] showed an L1 promoter activity [10] of 140 ± 58, an L1 promoter activity [11] of 126 ± 11 and an L1 promoter activity [12] of 136 ± 35. For the same compound, the L1 promoter activity [13] was 102 ± 16 and the L1 promoter activity [14] was 96 ± 7.4.
For `CC(C)(C(=O)c1cccnc1)c1cccnc1` [Metyrapone], the L1 promoter activity [8] was 121 ± 7.4, the L1 promoter activity [9] was 111 ± 11 and the L1 promoter activity [10] was 142 ± 18. For the same compound, the L1 promoter activity [11] was 121 ± 11, the L1 promoter activity [12] was 127 ± 3.5 and the L1 promoter activity [13] was 135 ± 14.
For `C=C(C)[C@H]1Cc2c(ccc3c2O[C@@H]2COc4cc(OC)c(OC)cc4[C@@H]2C3=O)O1` [Rotenone], the L1 promoter activity (concentration (uM unless unit written): 0.075, treatment time: 6 h) was 113 ± 28, the L1 promoter activity (concentration (uM unless unit written): 0.075, treatment time: 24 h) was 90.8 ± 3.4 and the L1 promoter activity [4] was 97.8 ± 8.2. It also gave an L1 promoter activity [6] of 93.6 ± 11.
`CC(=O)Nc1ccc(O)cc1` [Acetaminophen] gave an L1 promoter activity (concentration (uM unless unit written): 10000, treatment time: 6 h) of 116 ± 12, an L1 promoter activity (concentration (uM unless unit written): 10000, treatment time: 24 h) of 131 ± 18 and an L1 promoter activity (concentration (uM unless unit written): 20000, treatment time: 6 h) of 115 ± 9.1.
In the case of `CO[C@@]12[C@H](COC(N)=O)C3=C(C(=O)C(C)=C(N)C3=O)N1C[C@@H]1N[C@@H]12` [Mitomycin C], the L1 promoter activity (concentration (uM unless unit written): 2.5, treatment time: 6 h) is reported as 119 ± 25, the L1 promoter activity (concentration (uM unless unit written): 2.5, treatment time: 24 h) is reported as 131 ± 10 and the L1 promoter activity [4] is reported as 96.4 ± 11. For the same compound, the L1 promoter activity [5] was 114 ± 25.
In the case of `CN(C)CCN(Cc1cccs1)c1ccccn1` [Methapyrilene], the L1 promoter activity [10] is reported as 97.7 ± 2.8, the L1 promoter activity [11] is reported as 101 ± 25 and the L1 promoter activity [12] is reported as 86.6 ± 8.4. It also gave an L1 promoter activity [14] of 72.8 ± 12.
`COc1ccccc1OCC(O)CO` (configuration not stated) [Guaiacol glyceryl ether] gave an L1 promoter activity (concentration (uM unless unit written): 1250, treatment time: 6 h) of 123 ± 7.7, an L1 promoter activity (concentration (uM unless unit written): 1250, treatment time: 24 h) of 99.7 ± 7.2 and an L1 promoter activity [1] of 136 ± 19. The L1 promoter activity [2] was 112 ± 19, the L1 promoter activity (concentration (uM unless unit written): 5000, treatment time: 6 h) was 149 ± 13 and the L1 promoter activity (concentration (uM unless unit written): 5000, treatment time: 24 h) was 145 ± 15.
For `O=C(O)c1ccccc1Nc1cccc(C(F)(F)F)c1` [Flufenamic acid], the L1 promoter activity (concentration (uM unless unit written): 62.5, treatment time: 6 h) was 130 ± 7.7, the L1 promoter activity (concentration (uM unless unit written): 62.5, treatment time: 24 h) was 158 ± 19 and the L1 promoter activity [8] was 119 ± 14. The L1 promoter activity [9] was 120 ± 20 and the L1 promoter activity [10] was 129 ± 21.
`COC1=C(OC)C(=O)c2ccccc2C1=O` [2,3-Dimethoxy-1,4-naphthoquinone] gave an L1 promoter activity (concentration (uM unless unit written): 15, treatment time: 6 h) of 119 ± 8.7 and an L1 promoter activity (concentration (uM unless unit written): 30, treatment time: 6 h) of 119 ± 8.1.
In the case of `CNc1ccc2oc(C[C@H]3O[C@@]4(CC[C@H]3C)O[C@H]([C@H](C)C(=O)c3ccc[nH]3)[C@H](C)C[C@H]4C)nc2c1C(=O)O`, the L1 promoter activity (concentration (uM unless unit written): 0.75, treatment time: 6 h) is reported as 57.4 ± 16, the L1 promoter activity (concentration (uM unless unit written): 0.75, treatment time: 24 h) is reported as 57.4 ± 4.2 and the L1 promoter activity (concentration (uM unless unit written): 1.5, treatment time: 6 h) is reported as 52.4 ± 8.8. For the same compound, the L1 promoter activity [3] was 54.4 ± 4.2.
